Assay results as given in the supplement of paper PMC10627819.

Key:
S. aureus Newman = test: Bliss interaction score (quartile over a dose matrix) (fitness difference); higher = more antagonism (negative = synergy)
Procedure, shortened: (§1)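 Fitness was derived from optical density at entry into stationary phase, divided by the robust mean of the no-drug wells on the same plate. That reading was taken as OD595, and the ratio was capped at 1. Single-drug fitness was inferred from the combination data. The Bliss score, observed fitness minus the expected product of single-drug fitness, was summarised as quartiles over technical, biological and donor/recipient replicates.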

B. subtilis 168 [1] = test: as above
Procedure, shortened: as §1

S. aureus DSM 20231 = test: as above
Procedure, shortened: as §1

S. pneumoniae D39V = test: as above
Procedure, shortened: as §1

B. subtilis 168 [2] = test: fitness (endpoint OD595 vs no drug) (fraction); higher = more growth
Procedure, shortened: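 Fitness expresses the optical density reached at the stationary-phase transition as a fraction of the robust mean of no-drug control wells. It is capped at 1. Measurements were OD595 every 30 min for 14 h at 37 °C after inoculation of 384-well plates at OD595 0.01 (30 µl, or 55 µl for S. pneumoniae), minus the first reading.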
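Wherever Bliss interaction score (quartile over a dose matrix) is given: first quartile when negative (synergy) and third quartile when positive (antagonism).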

CC[C@H](C)[C@H](N)C1=N[C@H](C(=O)N[C@@H](CC(C)C)C(=O)N[C@H](CCC(=O)O)C(=O)N[C@H](C(=O)N[C@H]2CCCCNC(=O)[C@H](CC(N)=O)NC(=O)[C@@H](CC(=O)O)NC(=O)[C@H](Cc3cnc[nH]3)NC(=O)[C@@H](Cc3ccccc3)NC(=O)[C@H]([C@@H](C)CC)NC(=O)[C@@H](CCCN)NC2=O)[C@@H](C)CC)CS1 [Bacitracin] + COc1cc(Cc2cnc(N)nc2N)cc(OC)c1OC [Trimethoprim]
main component drawn
Settings	Bliss interaction score
B. subtilis 168 [1]	0.0858
S. aureus DSM 20231	0.013
S. aureus Newman	-0.08
S. pneumoniae D39V	-0.0391

fitness, B. subtilis 168 [2], one replicate, main component drawn
Settings	partner 0.1 µg/mL	partner 0.2 µg/mL	partner 0.4 µg/mL	partner 1 µg/mL	partner 2 µg/mL
first compound 37.5 µg/mL	0.925	0.65	0.508	0.462	0.24
first compound 75 µg/mL	0.898	0.715	0.532	0.441	0.235
first compound 150 µg/mL	0.875	0.71	0.499	0.348	0.219

fitness, B. subtilis 168 [2], main component drawn
Settings	first compound 37.5 µg/mL	first compound 75 µg/mL	first compound 150 µg/mL
partner 0.125 µg/mL	0.615	0.593	0.338
partner 0.5 µg/mL	0.518	–	–

CC[C@H](C)[C@H](N)C1=N[C@H](C(=O)N[C@@H](CC(C)C)C(=O)N[C@H](CCC(=O)O)C(=O)N[C@H](C(=O)N[C@H]2CCCCNC(=O)[C@H](CC(N)=O)NC(=O)[C@@H](CC(=O)O)NC(=O)[C@H](Cc3cnc[nH]3)NC(=O)[C@@H](Cc3ccccc3)NC(=O)[C@H]([C@@H](C)CC)NC(=O)[C@@H](CCCN)NC2=O)[C@@H](C)CC)CS1 [Bacitracin] + C[C@H]1c2cccc(O)c2C(=O)C2=C(O)[C@]3(O)C(=O)C(C(N)=O)=C(O)[C@@H](N(C)C)[C@@H]3[C@@H](O)[C@@H]21 [Doxycycline]
main component drawn
Settings	Bliss interaction score
B. subtilis 168 [1]	-0.0867
S. aureus DSM 20231	0.101
S. aureus Newman	-0.0186
S. pneumoniae D39V	0.0989

fitness, B. subtilis 168 [2], main component drawn
Settings	first compound 37.5 µg/mL	first compound 75 µg/mL	first compound 150 µg/mL
partner 0.02 µg/mL	0.844	0.81	–
partner 0.04 µg/mL	0.716	0.664	0.48
partner 0.08 µg/mL	0.476	0.218	0.0689

CO[C@@H]1[C@@H](OC(N)=O)[C@@H](O)[C@H](Oc2ccc3c(O)c(NC(=O)c4ccc(O)c(CC=C(C)C)c4)c(=O)oc3c2C)OC1(C)C [Novobiocin] + CN[C@@H]1[C@H](O[C@H]2[C@H](O[C@H]3[C@H](O)[C@@H](O)[C@H](N=C(N)N)[C@@H](O)[C@@H]3N=C(N)N)O[C@@H](C)[C@]2(O)C=O)O[C@@H](CO)[C@H](O)[C@H]1O [Streptomycin]
Settings	Bliss interaction score
B. subtilis 168 [1]	0.133
S. aureus DSM 20231	-0.111
S. aureus Newman	-0.172
S. pneumoniae D39V	0.0562

fitness, B. subtilis 168 [2]
Settings	first compound 0.0125 µg/mL	first compound 0.025 µg/mL	first compound 0.05 µg/mL
partner 2 µg/mL	0.967	≥ 1	0.938
partner 4 µg/mL	–	0.725	0.873
partner 8 µg/mL	0.0452	0.0379	0.0344

fitness, B. subtilis 168 [2], one replicate
Settings	first compound 0.125 µg/mL	first compound 0.25 µg/mL	first compound 0.5 µg/mL
partner 2 µg/mL	0.926	0.843	0.592
partner 4 µg/mL	0.928	0.836	0.537
partner 8 µg/mL	0.135	0.044	0.0121

CO[C@@H]1[C@@H](OC(N)=O)[C@@H](O)[C@H](Oc2ccc3c(O)c(NC(=O)c4ccc(O)c(CC=C(C)C)c4)c(=O)oc3c2C)OC1(C)C [Novobiocin] + COc1ccc(C[C@H](N)C(=O)N[C@H]2[C@@H](O)[C@H](n3cnc4c(N(C)C)ncnc43)O[C@@H]2CO)cc1 [Puromycin]
Settings	Bliss interaction score
B. subtilis 168 [1]	0.0583
S. aureus DSM 20231	-0.0356
S. aureus Newman	-0.0461
S. pneumoniae D39V	0.105

fitness, B. subtilis 168 [2]
Settings	first compound 0.0125 µg/mL	first compound 0.025 µg/mL	first compound 0.05 µg/mL
partner 0.39 µg/mL	0.948	0.948	0.973
partner 0.78 µg/mL	0.954	0.964	0.938
partner 1.56 µg/mL	0.956	0.907	0.971

fitness, B. subtilis 168 [2], one replicate
Settings	first compound 0.125 µg/mL	first compound 0.25 µg/mL	first compound 0.5 µg/mL
partner 0.39 µg/mL	0.89	0.819	0.554
partner 0.78 µg/mL	0.962	0.953	0.655
partner 1.56 µg/mL	0.905	0.853	0.544

CO[C@@H]1[C@@H](OC(N)=O)[C@@H](O)[C@H](Oc2ccc3c(O)c(NC(=O)c4ccc(O)c(CC=C(C)C)c4)c(=O)oc3c2C)OC1(C)C [Novobiocin] + CN(C)c1cc(NC(=O)CNC(C)(C)C)c(O)c2c1C[C@H]1C[C@H]3[C@H](N(C)C)C(O)=C(C(N)=O)C(=O)[C@@]3(O)C(O)=C1C2=O [Tigecycline]
Settings	Bliss interaction score
B. subtilis 168 [1]	0.034
S. aureus DSM 20231	0.079
S. aureus Newman	0.03
S. pneumoniae D39V	0.0803

fitness, B. subtilis 168 [2]
Settings	first compound 0.0125 µg/mL	first compound 0.025 µg/mL	first compound 0.05 µg/mL
partner 0.039 µg/mL	0.971	≥ 1	≥ 1
partner 0.078 µg/mL	0.952	0.986	0.977
partner 0.156 µg/mL	0.937	0.964	0.947

fitness, B. subtilis 168 [2], one replicate
Settings	first compound 0.05 µg/mL	first compound 0.1 µg/mL	first compound 0.125 µg/mL	first compound 0.2 µg/mL	first compound 0.25 µg/mL	first compound 0.5 µg/mL
partner 0.039 µg/mL	–	–	0.893	–	0.888	0.501
partner 0.078 µg/mL	–	–	0.924	–	0.818	0.508
partner 0.125 µg/mL	≥ 1	≥ 1	–	≥ 1	–	–
partner 0.156 µg/mL	–	–	0.866	–	0.77	0.607
partner 0.25 µg/mL	0.943	0.95	–	≥ 1	–	–
partner 0.5 µg/mL	0.953	≥ 1	–	0.999	–	–

CC[C@H](C)[C@H](N)C1=N[C@H](C(=O)N[C@@H](CC(C)C)C(=O)N[C@H](CCC(=O)O)C(=O)N[C@H](C(=O)N[C@H]2CCCCNC(=O)[C@H](CC(N)=O)NC(=O)[C@@H](CC(=O)O)NC(=O)[C@H](Cc3cnc[nH]3)NC(=O)[C@@H](Cc3ccccc3)NC(=O)[C@H]([C@@H](C)CC)NC(=O)[C@@H](CCCN)NC2=O)[C@@H](C)CC)CS1 [Bacitracin] + CCC[C@@H]1C[C@@H](C(=O)N[C@@H]([C@H]2O[C@H](SC)[C@H](O)[C@@H](O)[C@H]2O)[C@@H](C)O)N(C)C1 [Lincomycin]
main component drawn
Settings	Bliss interaction score
B. subtilis 168 [1]	0.0963
S. aureus DSM 20231	-0.046
S. aureus Newman	0.104
S. pneumoniae D39V	-0.0546

fitness, B. subtilis 168 [2], main component drawn
Settings	first compound 37.5 µg/mL	first compound 75 µg/mL	first compound 150 µg/mL
partner 0.1 µg/mL	0.955	0.915	0.896
partner 0.2 µg/mL	0.919	0.832	0.733
partner 0.4 µg/mL	0.86	0.827	–

fitness, B. subtilis 168 [2], one replicate, main component drawn
Settings	first compound 37.5 µg/mL	first compound 75 µg/mL	first compound 150 µg/mL
partner 0.8 µg/mL	0.764	0.74	0.389
partner 1.6 µg/mL	0.769	0.686	0.439

CO[C@@H]1[C@@H](OC(N)=O)[C@@H](O)[C@H](Oc2ccc3c(O)c(NC(=O)c4ccc(O)c(CC=C(C)C)c4)c(=O)oc3c2C)OC1(C)C [Novobiocin] + CN(N=O)C(=O)N[C@@H](C=O)[C@@H](O)[C@H](O)[C@H](O)CO [Streptozotocin]
Settings	Bliss interaction score
B. subtilis 168 [1]	0.0669
S. aureus DSM 20231	0.0969
S. aureus Newman	0.0508
S. pneumoniae D39V	-0.105

fitness, B. subtilis 168 [2], one replicate
Settings	first compound 0.0125 µg/mL	first compound 0.025 µg/mL	first compound 0.05 µg/mL	first compound 0.125 µg/mL	first compound 0.25 µg/mL	first compound 0.5 µg/mL
partner 0.15 µg/mL	0.914	≥ 1	0.877	0.869	0.925	0.516
partner 0.3 µg/mL	0.982	≥ 1	≥ 1	0.858	0.839	0.516
partner 0.6 µg/mL	0.993	≥ 1	0.945	≥ 1	0.871	0.504
